Key:
[1] = biological target: T1, CK1α (Homo sapiens, UniProt P48729+Q96SW2); experiment: Western blot, degradation of substrate protein in hPBMCs; format: cell-based; conditions: Western blot, 24 hours of compound treatment, compounds tested at 50 nM and 500 nM (concentration for the table not stated)
T1 construct: effects of the compounds of the present disclosure on the expression of target proteins in cells; endogenous in cells; host or cells: human PBMCs (Milecell Biotechnologies)

[2] = biological target: T2, IKZF3 (Homo sapiens, UniProt Q96SW2+Q9UKT9); experiment: as above; format: cell-based; conditions: Western blot, 24 hours of compound treatment, compounds tested at 50 nM and 500 nM (concentration for the table not stated)
T2 construct: effects of the compounds of the present disclosure on the expression of target proteins in cells; endogenous in cells; host or cells: human PBMCs (Milecell Biotechnologies)

[3] = biological target: T3, IKZF1 (Homo sapiens, UniProt Q13422+Q96SW2); experiment: as above; format: cell-based; conditions: Western blot, 24 hours of compound treatment, compounds tested at 50 nM and 500 nM (concentration for the table not stated)
T3 construct: effects of the compounds of the present disclosure on the expression of target proteins in cells; endogenous in cells; host or cells: human PBMCs (Milecell Biotechnologies)

[4] = biological target: T4, IKZF2 (Homo sapiens, UniProt Q96SW2+Q9UKS7); experiment: as above; format: cell-based; conditions: Western blot, 24 hours of compound treatment, compounds tested at 50 nM and 500 nM (concentration for the table not stated)
T4 construct: effects of the compounds of the present disclosure on the expression of target proteins in cells; endogenous in cells; host or cells: human PBMCs (Milecell Biotechnologies)

[5] = biological target: T5, WEE1 (Homo sapiens, UniProt P30291+Q96SW2); experiment: as above; format: cell-based; conditions: Western blot, 24 hours of compound treatment, compounds tested at 50 nM and 500 nM (concentration for the table not stated)
T5 construct: effects of the compounds of the present disclosure on the expression of target proteins in cells; endogenous in cells; host or cells: human PBMCs (Milecell Biotechnologies)

[6] = tested on: Human multiple myeloma cell (MM.1S); experiment: Tumor cell proliferation inhibition (CellTiter-Meiluncell luminescent cell viability assay); conditions: Homo sapiens, MM1.S, 96 h; for inhibition at 0.01 µM: read-out: Inhibition Rate at 10 nM (%); for inhibition at 0.5 µM: read-out: Inhibition Rate at 500 nM (%)
Protocol: (§1) The tumor cells used herein were cultured in a cell culture medium listed in table 2 at 37°C in an incubator with 5% CO2. Prior to experimentation, all cell lines used were correctly identified by STR profiling, and tested negative for mycoplasma contamination using a mycoplasma detection kit through routine screenings.
(§2) The IC50 values of the compounds of the present disclosure (including the compounds in Table 1 and Examples) were determined using the CellTiter-Meiluncell Luminescent Cell Viability Assay Kit from Dalian Meilun Biotech Co., Ltd. The detailed procedure is as follows: Tumor cells were seeded in 96-well cell culture plates at the densities specified in Table 3. On the following day, the test compounds of the present disclosure were subjected to serial dilution. The dilution can be performed according to one of the following two methods: • (1) The first dilution method: The test compounds of the present disclosure (including the compounds in Table 1 and Examples) were subjected to 5-fold serial dilutions starting from a highest concentration of 2000 µM, resulting in a total of 9 concentrations from high to low (2000, 400, 80, 16, 3.2, 0.64, 0.128, 0.0256, 0.00512 µM). Subsequently, 0.5 µL of the test compound dilution was transferred into the 96-well plate containing the cells, with each well containing 100 µL of cell culture medium. […] Into the 96-well plate, the diluted test compounds and corresponding detection reagents were added, resulting in final test compound concentrations of 500 nM and 10 nM, respectively. The experimental procedure is described below using the diluted 2 µM test compound as an example.
(§3) 0.5 µL of the aforementioned diluted compound of the present disclosure (including the compounds in Table 1 and Examples) was added to the seeded cells in 100 µL of medium, yielding a final test compound concentration of 10 nM. After the cells were treated with the compounds of the present disclosure for a specified period, the cell viability assay reagent was added to the culture medium according to the kit's instructions to determine cell viability. […] All controls were treated using the same procedure as the compounds of the present disclosure. The growth inhibition curves for the compounds of the present disclosure were plotted using Prism GraphPad software, and the IC50 values were calculated therefrom.

[7] = tested on: GSPT1; experiment: Western blot, degradation of substrate protein in hPBMCs; format: cell-based, Human; conditions: Western blot, 24 hours of compound treatment, compounds tested at 50 nM and 500 nM (concentration for the table not stated)
[8] = tested on: Human breast cancer cell (MCF-7); experiment: Tumor cell proliferation inhibition (CellTiter-Meiluncell luminescent cell viability assay); conditions: MCF7, 96 h; for inhibition at 0.5 µM: read-out: Inhibition Rate at 500 nM (%); for inhibition at 0.01 µM: read-out: Inhibition Rate at 10 nM (%)
Protocol: as §1, §2, §3

[9] = biological target: T6, human Cereblon WT GST-tagged protein (Homo sapiens, UniProt Q96SW2); experiment: CRBN-binding affinity, HTRF (CEREBLON BINDING kit); conditions: for inhibition at 0.5 µM: read-out: Inhibition Rate at 0.5 µM (%); for inhibition at 2 µM: read-out: Inhibition Rate at 2 µM (%)
T6 construct: purchased CISBIO 64BDCRBNPEH

[10] = tested on: Human acute T lymphocytic leukemia cell (Molt4); experiment: Tumor cell proliferation inhibition (CellTiter-Meiluncell luminescent cell viability assay); conditions: MOLT-4, 96 h; for inhibition at 0.01 µM: read-out: Inhibition Rate at 10 nM (%); for inhibition at 0.5 µM: read-out: Inhibition Rate at 500 nM (%)
[11] = tested on: Human myeloid monocytic leukemia cell (MV-4-11); experiment: as above; conditions: MV4-11, 96 h; for inhibition at 0.01 µM: read-out: Inhibition Rate at 10 nM (%); for inhibition at 0.5 µM: read-out: Inhibition Rate at 500 nM (%)
[12] = tested on: Human multiple myeloma peripheral blood B lymphocyte cell (RPMI-8226); experiment: as above; conditions: RPMI-8226, 96 h; for inhibition at 0.01 µM: read-out: Inhibition Rate at 10 nM (%); for inhibition at 0.5 µM: read-out: Inhibition Rate at 500 nM (%)
Protocol: as §1, §2, §3

[13] = tested on: Human acute myeloid leukemia cell line: Kasumi-1; experiment: as above; conditions: Kasumi 1, 96 h; for inhibition at 0.01 µM: read-out: Inhibition Rate at 10 nM (%); for inhibition at 0.5 µM: read-out: Inhibition Rate at 500 nM (%)
Protocol: as §1, §2, §3

T1 sequence (P48729 whole entry): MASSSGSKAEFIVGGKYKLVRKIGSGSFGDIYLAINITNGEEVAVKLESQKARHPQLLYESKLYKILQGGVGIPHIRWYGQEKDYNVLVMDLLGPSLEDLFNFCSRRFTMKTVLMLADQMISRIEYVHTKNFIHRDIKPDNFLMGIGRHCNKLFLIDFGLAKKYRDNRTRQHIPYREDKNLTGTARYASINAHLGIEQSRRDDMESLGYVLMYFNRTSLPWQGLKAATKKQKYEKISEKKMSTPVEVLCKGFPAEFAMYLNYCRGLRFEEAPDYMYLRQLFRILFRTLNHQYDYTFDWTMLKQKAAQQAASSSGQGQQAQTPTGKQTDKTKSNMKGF
T1 sequence (Q96SW2 whole entry): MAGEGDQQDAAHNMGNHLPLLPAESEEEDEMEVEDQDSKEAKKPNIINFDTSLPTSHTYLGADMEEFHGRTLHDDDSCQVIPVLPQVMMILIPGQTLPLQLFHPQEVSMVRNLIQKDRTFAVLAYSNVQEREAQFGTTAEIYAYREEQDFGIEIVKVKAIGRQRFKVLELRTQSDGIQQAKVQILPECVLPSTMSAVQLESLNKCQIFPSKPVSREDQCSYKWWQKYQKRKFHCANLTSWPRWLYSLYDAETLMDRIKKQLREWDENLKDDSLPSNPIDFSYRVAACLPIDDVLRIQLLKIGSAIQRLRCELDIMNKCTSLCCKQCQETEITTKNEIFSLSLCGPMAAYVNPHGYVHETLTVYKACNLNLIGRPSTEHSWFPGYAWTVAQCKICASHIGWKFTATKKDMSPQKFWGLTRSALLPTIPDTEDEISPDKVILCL
T1 sequence (Q16531 whole entry partner): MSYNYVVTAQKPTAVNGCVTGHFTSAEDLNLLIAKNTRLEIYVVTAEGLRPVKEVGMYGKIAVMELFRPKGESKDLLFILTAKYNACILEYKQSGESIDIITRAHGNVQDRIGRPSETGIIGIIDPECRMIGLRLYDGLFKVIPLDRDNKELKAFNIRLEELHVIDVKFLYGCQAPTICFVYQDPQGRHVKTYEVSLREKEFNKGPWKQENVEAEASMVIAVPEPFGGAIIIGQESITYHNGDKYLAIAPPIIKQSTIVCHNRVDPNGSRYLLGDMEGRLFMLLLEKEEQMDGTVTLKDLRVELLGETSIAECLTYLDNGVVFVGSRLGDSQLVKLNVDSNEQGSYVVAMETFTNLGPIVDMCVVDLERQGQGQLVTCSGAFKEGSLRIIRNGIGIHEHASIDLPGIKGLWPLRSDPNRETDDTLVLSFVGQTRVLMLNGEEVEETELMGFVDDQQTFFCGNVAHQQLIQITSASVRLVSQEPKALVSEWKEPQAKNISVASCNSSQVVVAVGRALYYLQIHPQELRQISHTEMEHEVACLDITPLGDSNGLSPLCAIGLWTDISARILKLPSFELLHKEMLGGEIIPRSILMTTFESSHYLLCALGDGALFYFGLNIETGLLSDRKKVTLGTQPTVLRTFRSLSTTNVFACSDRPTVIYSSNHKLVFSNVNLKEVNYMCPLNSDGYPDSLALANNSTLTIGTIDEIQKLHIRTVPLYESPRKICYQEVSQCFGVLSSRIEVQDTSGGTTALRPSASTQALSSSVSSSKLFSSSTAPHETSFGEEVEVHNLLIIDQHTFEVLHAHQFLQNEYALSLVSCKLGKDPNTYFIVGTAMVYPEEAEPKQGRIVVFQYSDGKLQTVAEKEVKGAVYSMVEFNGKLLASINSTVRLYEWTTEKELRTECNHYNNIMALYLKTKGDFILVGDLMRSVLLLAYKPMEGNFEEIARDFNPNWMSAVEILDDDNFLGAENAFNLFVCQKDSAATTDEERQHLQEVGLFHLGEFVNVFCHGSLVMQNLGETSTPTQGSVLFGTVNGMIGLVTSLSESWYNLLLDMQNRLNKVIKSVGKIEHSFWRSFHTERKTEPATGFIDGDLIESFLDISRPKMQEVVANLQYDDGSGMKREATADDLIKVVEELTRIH
T4 sequence (Q9UKS7 whole entry): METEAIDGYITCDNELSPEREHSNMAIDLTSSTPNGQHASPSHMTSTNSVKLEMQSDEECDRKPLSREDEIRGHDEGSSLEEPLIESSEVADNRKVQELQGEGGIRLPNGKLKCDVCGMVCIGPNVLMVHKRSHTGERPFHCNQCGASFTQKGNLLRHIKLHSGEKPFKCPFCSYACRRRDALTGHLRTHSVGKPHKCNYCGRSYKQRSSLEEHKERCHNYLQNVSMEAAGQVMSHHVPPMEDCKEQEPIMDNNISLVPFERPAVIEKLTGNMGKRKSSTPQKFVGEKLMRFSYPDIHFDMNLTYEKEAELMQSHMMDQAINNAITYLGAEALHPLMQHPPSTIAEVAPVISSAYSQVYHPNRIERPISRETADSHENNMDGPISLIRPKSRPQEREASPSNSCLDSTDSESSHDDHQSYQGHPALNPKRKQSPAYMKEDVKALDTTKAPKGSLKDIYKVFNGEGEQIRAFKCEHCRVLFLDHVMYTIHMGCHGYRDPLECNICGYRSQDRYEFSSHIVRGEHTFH
T4 sequence (Q96SW2 whole entry): as the sequence (Q96SW2 whole entry) above
T4 sequence (Q16531 whole entry partner): as the sequence (Q16531 whole entry partner) above
T3 sequence (Q13422 whole entry): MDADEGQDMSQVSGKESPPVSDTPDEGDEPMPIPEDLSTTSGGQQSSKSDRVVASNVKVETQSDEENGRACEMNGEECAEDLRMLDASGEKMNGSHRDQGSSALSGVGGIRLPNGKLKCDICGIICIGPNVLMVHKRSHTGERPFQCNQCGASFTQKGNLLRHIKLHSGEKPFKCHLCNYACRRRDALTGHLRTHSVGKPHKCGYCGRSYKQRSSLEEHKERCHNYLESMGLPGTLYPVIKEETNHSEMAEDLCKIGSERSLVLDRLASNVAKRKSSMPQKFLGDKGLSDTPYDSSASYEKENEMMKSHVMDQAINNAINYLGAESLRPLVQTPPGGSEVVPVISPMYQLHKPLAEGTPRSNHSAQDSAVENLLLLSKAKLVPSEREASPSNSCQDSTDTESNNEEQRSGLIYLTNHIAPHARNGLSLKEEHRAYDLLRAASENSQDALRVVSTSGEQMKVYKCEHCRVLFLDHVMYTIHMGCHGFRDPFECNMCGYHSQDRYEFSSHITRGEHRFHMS
T3 sequence (Q96SW2 whole entry): as the sequence (Q96SW2 whole entry) above
T3 sequence (Q16531 whole entry partner): as the sequence (Q16531 whole entry partner) above
T2 sequence (Q9UKT9 whole entry): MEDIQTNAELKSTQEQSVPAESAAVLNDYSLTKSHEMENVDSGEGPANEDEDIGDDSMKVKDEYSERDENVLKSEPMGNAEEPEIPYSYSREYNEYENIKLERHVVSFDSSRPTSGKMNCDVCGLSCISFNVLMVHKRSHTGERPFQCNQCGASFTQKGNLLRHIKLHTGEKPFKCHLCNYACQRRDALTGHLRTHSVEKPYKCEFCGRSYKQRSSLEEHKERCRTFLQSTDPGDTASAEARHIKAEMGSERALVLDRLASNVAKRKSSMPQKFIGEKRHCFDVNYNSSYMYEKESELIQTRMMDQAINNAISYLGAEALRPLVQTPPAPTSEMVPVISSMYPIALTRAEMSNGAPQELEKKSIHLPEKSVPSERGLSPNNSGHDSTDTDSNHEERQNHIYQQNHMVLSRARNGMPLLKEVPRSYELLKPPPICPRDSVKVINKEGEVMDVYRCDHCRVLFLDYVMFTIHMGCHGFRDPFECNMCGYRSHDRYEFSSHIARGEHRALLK
T2 sequence (Q96SW2 whole entry): as the sequence (Q96SW2 whole entry) above
T2 sequence (Q16531 whole entry partner): as the sequence (Q16531 whole entry partner) above
T5 sequence (P30291 whole entry): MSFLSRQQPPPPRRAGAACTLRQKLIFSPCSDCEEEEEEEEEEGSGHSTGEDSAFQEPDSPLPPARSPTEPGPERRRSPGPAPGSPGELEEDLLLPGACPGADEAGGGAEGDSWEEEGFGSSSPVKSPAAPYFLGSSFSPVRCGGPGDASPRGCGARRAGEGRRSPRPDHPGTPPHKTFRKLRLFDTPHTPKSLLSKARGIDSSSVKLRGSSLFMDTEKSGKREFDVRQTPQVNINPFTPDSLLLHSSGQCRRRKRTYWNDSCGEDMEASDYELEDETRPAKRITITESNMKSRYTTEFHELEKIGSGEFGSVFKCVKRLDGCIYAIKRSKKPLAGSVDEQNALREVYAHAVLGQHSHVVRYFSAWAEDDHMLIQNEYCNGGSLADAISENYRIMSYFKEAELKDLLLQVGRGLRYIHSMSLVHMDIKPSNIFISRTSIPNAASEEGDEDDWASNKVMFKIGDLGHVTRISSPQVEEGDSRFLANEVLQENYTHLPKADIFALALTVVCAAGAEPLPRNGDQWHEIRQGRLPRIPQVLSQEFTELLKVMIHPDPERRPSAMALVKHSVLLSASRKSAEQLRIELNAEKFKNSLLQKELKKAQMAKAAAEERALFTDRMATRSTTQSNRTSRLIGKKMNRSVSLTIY
T5 sequence (Q96SW2 whole entry): as the sequence (Q96SW2 whole entry) above
T5 sequence (Q16531 whole entry partner): as the sequence (Q16531 whole entry partner) above
T6 sequence (Q96SW2 whole entry): as the sequence (Q96SW2 whole entry) above

Structure (SMILES) | CK1α substrate protein remaining % [1] | IKZF3 substrate protein remaining % [2] | IKZF 1 substrate protein remaining % [3] | IKZF2 substrate protein remaining % [4] | Wee1 substrate protein remaining % [5] | inhibition at 0.01 µM [6] | inhibition at 0.5 µM [6] | GSPT1 substrate protein remaining % [7] | inhibition at 0.5 µM [8] | inhibition at 0.5 µM [9] | inhibition at 2 µM [9] | inhibition at 0.01 µM [10] | inhibition at 0.5 µM [10] | inhibition at 0.01 µM [11] | inhibition at 0.5 µM [11] | inhibition at 0.01 µM [12] | inhibition at 0.5 µM [12] | inhibition at 0.01 µM [8] | inhibition at 0.01 µM [13] | inhibition at 0.5 µM [13]
O=C1CCC(N2Cc3cc(CN4CC=C(c5ncccc5F)CC4)ccc3C2=S)C(=O)N1 (stereo not drawn) [GT-08491, 3-(5-((3-fluoro-3',6'-dihydro-[2,4'-bipyridin]-1'(2'H)-yl)methyl)-1-thioxoisoindolin-2-yl)piperidine-2,6-dione] | B (80%< substrate protein remaining %≤ 100%) | B (80%< substrate protein remaining %≤ 100%) | B (80%< substrate protein remaining %≤ 100%) | B (80%< substrate protein remaining %≤ 100%) | A (0% ≤ substrate protein remaining % ≤ 80%) | 10 to 20% | 80 to 100% | A (0% ≤ substrate protein remaining % ≤ 80%) | 40 to 50% | 80 to 100% | 80 to 100% | 20 to 30% | 80 to 100% | 18 to 25% | 80 to 100% | 10 to 20% | 70 to 80% | – | – | –
O=C1CCC(N2Cc3cc(CN4CC=C(c5cncc(Cl)c5)CC4)ccc3C2=S)C(=O)N1 (stereo not drawn) [GT-08490, 3-(5-((5-chloro-3',6'-dihydro-[3,4'-bipyridin]-1'(2'H)-yl)methyl)-1-thioxoisoindolin-2-yl)piperidine-2,6-dione] | B (80%< substrate protein remaining %≤ 100%) | A (0% ≤ substrate protein remaining % ≤ 80%) | B (80%< substrate protein remaining %≤ 100%) | A (0% ≤ substrate protein remaining % ≤ 80%) | A (0% ≤ substrate protein remaining % ≤ 80%) | 50 to 60% | 80 to 100% | A (0% ≤ substrate protein remaining % ≤ 80%) | 50 to 60% | 60 to 80% | 80 to 100% | 0 to 5% | 80 to 100% | 40 to 60% | 80 to 100% | 20 to 30% | 70 to 80% | 30 to 40% | – | –
O=C1CCC(N2Cc3c(CN4CCN(c5ccc(Cl)cc5)CC4)cccc3C2=S)C(=O)N1 (stereo not drawn) [GT-08266, 3-(4-((4-(4-chlorophenyl)piperazin-1-yl)methyl)-1-thioxoisoindolin-2-yl)piperidine-2,6-dione] | B (80%< substrate protein remaining %≤ 100%) | B (80%< substrate protein remaining %≤ 100%) | B (80%< substrate protein remaining %≤ 100%) | B (80%< substrate protein remaining %≤ 100%) | A (0% ≤ substrate protein remaining % ≤ 80%) | 40 to 50% | 50 to 60% | A (0% ≤ substrate protein remaining % ≤ 80%) | 40 to 50% | 30 to 40% | 60 to 80% | – | – | 60 to 80% | 80 to 100% | – | – | 40 to 50% | 50 to 60% | 50 to 60%
O=C1CCC(N2Cc3c(CN4CCN(c5cccc(F)c5F)CC4)cccc3C2=S)C(=O)N1 (stereo not drawn) [GT-08268, 3-(4-((4-(2,3-difluorophenyl)piperazin-1-yl)methyl)-1-thioxoisoindolin-2-yl)piperidine-2,6-dione] | B (80%< substrate protein remaining %≤ 100%) | B (80%< substrate protein remaining %≤ 100%) | B (80%< substrate protein remaining %≤ 100%) | B (80%< substrate protein remaining %≤ 100%) | A (0% ≤ substrate protein remaining % ≤ 80%) | – | – | A (0% ≤ substrate protein remaining % ≤ 80%) | – | 40 to 53% | 60 to 80% | – | – | 60 to 80% | 60 to 80% | – | – | – | 50 to 60% | 50 to 60%
